# Source: patent US6379658B1, “Human sweat malodor counteractant composition and process for using same” (International Flavors & Fragrances Inc., priority 1999, dated 2002)
# Assay: Human sweat malodor neutralization (jar method), headspace rated by trained panel using Magnitude Estimation
# Conditions: single fragrance ingredient; % Reduction=100×[1-(malodor intensity/total intensity)]
# Experimental: Malodor neutralization is evaluated by placing a specified amount of malodor into an uncapped, 1 ounce wide-mouth jar. This jar is placed into an 8 ounce wide-mouth jar containing a specified amount of test material or finished fragrance. The quantities of malodor and fragrance are dependent on the specific malodor model used. The 8 ounce jar is capped and allowed to equilibrate. The panelists then rate the headspace for (1) total intensity, (2) malodor intensity and (3) overall like/dislike (hedonics). They are provided with an identified sample of malodor as a reference. Each group of samples presented to the panel contains an unidentified positive control (a fragrance material with no malodor), two unidentified negative controls (malodor with no fragrance) and up to twelve test samples (each fragrance is presented in duplicate or triplicate).
# It is to be noted that evaluations are carried out by panelists who have been extensively screened for their olfactory acuity and trained in the method of evaluation (Magnitude Estimation). Panelist performance is constantly monitored and reviewed.
# All samples are coded with random 5-digit numbers. Panelists are instructed to select samples from the test set and evaluate them in a random order.
# The results of these experiments are expressed in terms of malodor reduction (neutralization), change in overall intensity and improvement in hedonics.
# The percent malodor reduction is calculated as:
# % Reduction=100×[1-(malodor intensity/total intensity)]
# or shown thusly: [formula]
# wherein wherein RMOL represents malodor reduction; iMO is malodor intensity; and iT represents total intensity.
# The following protocol has been developed to determine the level of odor neutralization:
# 1. A predetermined quantity of the malodor model is measured with a micropipette into an uncapped 1 oz. wide-mouth jar. This jar is subsequently placed into an 8 oz. wide-mouth jar containing a predetermined quantity of the test material. The 8 oz. jar is capped and allowed to equilibrate prior to evaluation;
# 2. […] Each judge is also presented with an identified sample of the malodor in order to reinforce the malodor discrimination task;
# 3. Each of the judges rate the headspace for (a) total odor intensity, (b) malodor intensity and (c) the overall like/dislike (hedonics) of the sample; and […]
row,Compound,% Human Sweat Malodor Coverage [% reduction]
1,"CC(=O)C(C)=CC1C(C)=CCCC1(C)C (centres unmarked) [γ-Methyl ionone, 4-(2,6,6-trimethyl-2-cyclohexen-1-yl)-3-methyl-3-buten-2-one]",93
2,"CC(=O)CCc1ccccc1 [Benzyl acetone, benzyl acetone]",96
3,"COc1ccc2ccccc2c1 [β-Naphthyl methyl ether, β-naphthyl methyl ether]",92
4,"CC(=O)c1ccc2ccccc2c1 [Methyl β-naphthalene ketone, methyl β-naphthyl ketone]",96
5,"mixture of hexahydro4,7-methanoinden-5-yl propionate and hexahydro-4,7-methanoinden-6-yl propionate [CYCLAPROP ™]",91
